Laboratory results as given in the supplement of paper PMC7017272.
± gives the standard deviation of the averaged measurements.

Key:
UT-SCC-81 [1] = test: drug sensitivity score (DSS); higher = more sensitive; extreme values may be limits of the assay; conditions: treatment time: 3 days
Procedure, shortened: (§1)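 The FIMM pipeline was used to fit percent-inhibition dose–response curves, giving IC50, maximal inhibition and drug sensitivity score. Input data were CellTiter-Glo 2.0 luminescence readings, normalised to vehicle (0.1% DMSO) and cell-killing control wells, from HPV-negative HNSCC cell lines seeded at 500 cells/well in 384-well plates. Cells sat on plastic, on Matrigel or Myogel coatings (500 µg/mL), or within Matrigel or Myogel plus rat collagen I, and received compounds at five 10-fold concentrations for 3 days.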

UT-SCC-42B [2] = test: as above; conditions: treatment time: 3 days
Procedure, shortened: as §1

UT-SCC-8 = test: as above; conditions: treatment time: 3 days
Procedure, shortened: as §1

UT-SCC-24B = test: as above; conditions: treatment time: 3 days
Procedure, shortened: as §1

UT-SCC-44 [3] = test: as above; conditions: treatment time: 3 days
Procedure, shortened: as §1

UT-SCC-73 [4] = test: as above; conditions: treatment time: 3 days
Procedure, shortened: as §1

UT-SCC-42A [5] = test: as above; conditions: treatment time: 3 days
Procedure, shortened: as §1

UT-SCC-40 = test: as above; conditions: treatment time: 3 days
Procedure, shortened: as §1

UT-SCC-14 [6] = test: as above; conditions: treatment time: 3 days
Procedure, shortened: as §1

UT-SCC-28 = test: as above; conditions: treatment time: 3 days
Procedure, shortened: as §1

UT-SCC-106A = test: as above; conditions: treatment time: 3 days
Procedure, shortened: as §1

UT-SCC-81 [7] = test: relative IC50 (midpoint of the fitted curve; maximal inhibition may be below 50%); higher = less potent; conditions: treatment time: 3 days
Procedure, shortened: as §1

UT-SCC-42B [8] = test: as above; conditions: culture condition: on top of Myogel; treatment time: 3 days
Procedure, shortened: as §1

UT-SCC-44 [9] = test: as above; conditions: treatment time: 3 days
Procedure, shortened: as §1

UT-SCC-73 [10] = test: as above; conditions: treatment time: 3 days
Procedure, shortened: as §1

UT-SCC-42A [11] = test: as above; conditions: treatment time: 3 days
Procedure, shortened: as §1

UT-SCC-14 [12] = test: as above; conditions: treatment time: 3 days
Procedure, shortened: as §1

UT-SCC-24A = test: relative IC50 (midpoint of the fitted curve; maximal inhibition may be below 50%); higher = less potent; conditions: treatment time: 3 days
Procedure: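 HNSCC cell lines (500 cells/well, 384-well) were cultured on plastic, on top of (2D) or embedded (3D) in Matrigel or human leiomyoma matrix Myogel (500 ug/mL; Myogel 3D mixed with rat collagen I). Cells were treated for 3 days with 5 ten-fold concentrations of each drug, and viability was read by CellTiter-Glo. Viability was normalised to DMSO (0% inhibition) and 100 uM benzethonium chloride (100% inhibition) controls and fitted with the FIMM DSRT pipeline to give IC50 (nM), maximal % inhibition and the drug sensitivity score (DSS). Suffixes _1/_2/_3 on drug names are replicates.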

[13] = culture condition: embedded in Matrigel
[14] = culture condition: embedded in Myogel + collagen I
[15] = culture condition: on top of Matrigel
[16] = culture condition: on top of Myogel
[17] = culture condition: plastic 2D (no matrix)

Compound: CO[C@H]1C[C@@H]2CC[C@@H](C)[C@@](O)(O2)C(=O)C(=O)N2CCCC[C@H]2C(=O)O[C@H]([C@H](C)C[C@@H]2CC[C@@H](O)[C@H](OC)C2)CC(=O)[C@H](C)/C=C(\C)[C@@H](O)[C@@H](OC)C(=O)[C@H](C)C[C@H](C)/C=C/C=C/C=C/1C [Sirolimus]
- drug sensitivity score (UT-SCC-81 [1]; [13]): 14.2 ± 4.6 DSS
- drug sensitivity score (UT-SCC-81 [1]; [14]): 14.9 ± 2.7 DSS
- drug sensitivity score (UT-SCC-81 [1]; [15]): 17.1 ± 1.8 DSS
- drug sensitivity score (UT-SCC-81 [1]; [16]): 16.6 ± 2.1 DSS
- drug sensitivity score (UT-SCC-81 [1]; [17]): 17.8 ± 1.2 DSS
- drug sensitivity score (UT-SCC-42B [2]; [13]): 3.47 ± 6 DSS
- drug sensitivity score (UT-SCC-42B [2]; [15]): 3.07 ± 5.3 DSS
- drug sensitivity score (UT-SCC-42B [2]; [16]): 0 DSS
- drug sensitivity score (UT-SCC-42B [2]; [17]): 3.8 ± 3.4 DSS
- drug sensitivity score (UT-SCC-8; [13]): 12.2 ± 11 DSS
- drug sensitivity score (UT-SCC-8; [14]): 3.87 ± 6.7 DSS
- drug sensitivity score (UT-SCC-8; [15]): 11.5 ± 10 DSS
- drug sensitivity score (UT-SCC-8; [16]): 11.3 ± 9.8 DSS
- drug sensitivity score (UT-SCC-8; [17]): 12.4 ± 11 DSS
- drug sensitivity score (UT-SCC-24B; [13]): 22.9 ± 0.36 DSS
- drug sensitivity score (UT-SCC-24B; [14]): 19.5 ± 4 DSS
- drug sensitivity score (UT-SCC-24B; [15]): 18.9 ± 4.8 DSS
- drug sensitivity score (UT-SCC-24B; [16]): 17.2 ± 3.4 DSS
- drug sensitivity score (UT-SCC-24B; [17]): 16.8 ± 4.1 DSS
- drug sensitivity score (UT-SCC-44 [3]; [13]): 6.6 ± 5.8 DSS
- drug sensitivity score (UT-SCC-44 [3]; [14]): 13.9 ± 2.7 DSS
- drug sensitivity score (UT-SCC-44 [3]; [15]): 13.1 ± 0.99 DSS
- drug sensitivity score (UT-SCC-44 [3]; [16]): 14.2 ± 3.2 DSS
- drug sensitivity score (UT-SCC-44 [3]; [17]): 15 ± 1.4 DSS
- drug sensitivity score (UT-SCC-73 [4]; [13]): 12.4 ± 4.3 DSS
- drug sensitivity score (UT-SCC-73 [4]; [14]): 8.07 ± 1.6 DSS
- drug sensitivity score (UT-SCC-73 [4]; [15]): 11.9 ± 5.2 DSS
- drug sensitivity score (UT-SCC-73 [4]; [16]): 10.1 ± 0.81 DSS
- drug sensitivity score (UT-SCC-73 [4]; [17]): 7.43 ± 0.31 DSS
- drug sensitivity score (UT-SCC-42A [5]; [13]): 10.6 ± 4.6 DSS
- drug sensitivity score (UT-SCC-42A [5]; [14]): 9.5 ± 0.92 DSS
- drug sensitivity score (UT-SCC-42A [5]; [15]): 12.9 ± 1.6 DSS
- drug sensitivity score (UT-SCC-42A [5]; [16]): 12.3 ± 1.6 DSS
- drug sensitivity score (UT-SCC-42A [5]; [17]): 11.2 ± 0.82 DSS
- drug sensitivity score (UT-SCC-40; [13]): 5.4 ± 4.9 DSS
- drug sensitivity score (UT-SCC-40; [14]): 4.83 ± 4.2 DSS
- drug sensitivity score (UT-SCC-40; [15]): 3.2 ± 5.5 DSS
- drug sensitivity score (UT-SCC-40; [16]): 4.67 ± 4.1 DSS
- drug sensitivity score (UT-SCC-40; [17]): 0 DSS
- drug sensitivity score (UT-SCC-14 [6]; [13]): 19.3 ± 2.1 DSS
- drug sensitivity score (UT-SCC-14 [6]; [14]): 15.4 ± 2.7 DSS
- drug sensitivity score (UT-SCC-14 [6]; [15]): 15.6 ± 3.3 DSS
- drug sensitivity score (UT-SCC-14 [6]; [16]): 15.4 ± 3.1 DSS
- drug sensitivity score (UT-SCC-14 [6]; [17]): 15.1 ± 3.8 DSS
- drug sensitivity score (UT-SCC-28; [13]): 7.27 ± 5.1 DSS
- drug sensitivity score (UT-SCC-28; [14]): 7.53 ± 7 DSS
- drug sensitivity score (UT-SCC-28; [15]): 9.87 ± 0.93 DSS
- drug sensitivity score (UT-SCC-28; [17]): 6.97 ± 1.6 DSS
- drug sensitivity score (UT-SCC-106A; [13]): 4.7 ± 4.3 DSS
- drug sensitivity score (UT-SCC-106A; [14]): 3.73 ± 3.3 DSS
- drug sensitivity score (UT-SCC-106A; [15]): 8.67 ± 3.8 DSS
- drug sensitivity score (UT-SCC-106A; [16]): 7.03 ± 3.8 DSS
- drug sensitivity score (UT-SCC-106A; [17]): 10 ± 3.3 DSS
- relative IC50 (UT-SCC-81 [7]; [14]): 2.71 nM
- relative IC50 (UT-SCC-81 [7]; [15]): 1.95 nM
- relative IC50 (UT-SCC-81 [7]; [16]): 1.55 nM
- relative IC50 (UT-SCC-81 [7]; [17]): 1.4 nM
- relative IC50 (UT-SCC-42B [8]): > 98.9 nM
- relative IC50 (UT-SCC-44 [9]; [14]): 2.41 nM
- relative IC50 (UT-SCC-44 [9]; [15]): 1.79 nM
- relative IC50 (UT-SCC-44 [9]; [17]): 1.88 nM
- relative IC50 (UT-SCC-73 [10]; [14]): 26.3 nM
- relative IC50 (UT-SCC-73 [10]; [16]): 12 nM
- relative IC50 (UT-SCC-73 [10]; [17]): 31.8 nM
- relative IC50 (UT-SCC-42A [11]; [14]): 3.22 nM
- relative IC50 (UT-SCC-42A [11]; [15]): 2.37 nM
- relative IC50 (UT-SCC-42A [11]; [16]): 2.33 nM
- relative IC50 (UT-SCC-42A [11]; [17]): 2.24 nM
- relative IC50 (UT-SCC-14 [12]; [13]): 0.687 nM
- relative IC50 (UT-SCC-14 [12]; [14]): 0.9 nM
- relative IC50 (UT-SCC-14 [12]; [15]): 1.24 nM
- relative IC50 (UT-SCC-14 [12]; [16]): 1.06 nM
- relative IC50 (UT-SCC-24A; [14]): 1.86 nM
- relative IC50 (UT-SCC-24A; [16]): 2.01 nM
